Data from US4731109A, “Herbicidal 2-haloacetanilides” (Monsanto Company, priority 1982, dated 1988).
Read-outs that look alike come from different tables or passages of the source.

Assays:
[1] = tested on: Sorghum; test: Field pre-emergence selectivity test; type: in vivo; details: 1008 h, 6 weeks, read-out: Percent Inhibition; for inhibition at 560 g/ha: 0.56 Kg/Ha; for inhibition at 1120 g/ha: 1.12 Kg/Ha; for inhibition at 2240 g/ha: 2.24 Kg/Ha; for inhibition at 4480 g/ha: 4.48 Kg/Ha
Protocol: (§1) The compound of Examples 1 and 2 was also tested in the field to determine its pre-emergence selectivity against foxtail (spp), barnyardgrass, wild proso millet, smartweed, lambsquarters and pigweed in a plurality of crops; the data (representing three replicate runs) are shown in Table VII for both surface application (S.A.) and soil incorporation (PPI, i.e., preplant incorporation) of the herbicide. The seeds were planted in a fine seedbed of silt loam of intermediate moisture. The seeds were planted at a depth of two inches (5.08 cm). First rainfall (0.2"; 0.51 cm) occurred the day following treatment, the second rain (0.25"; […]) two days after treatment; cumulative rainfall 22 days after treatment was 1.8" (4.57 cm). Observations were made 6 weeks after treatment.

[2] = tested on: Smartweed; test: Field pre-emergence selectivity test; type: in vivo; details: 1008 h, 6 weeks, read-out: Percent Inhibition; for inhibition at 560 g/ha: 0.56 Kg/Ha; for inhibition at 2240 g/ha: 2.24 Kg/Ha; for inhibition at 4480 g/ha: 4.48 Kg/Ha; for inhibition at 1120 g/ha: 1.12 Kg/Ha
Protocol: as §1

[3] = tested on: soybeans; test: Field pre-emergence selectivity test; type: in vivo; details: Glycine max, 1008 h, 6 weeks, read-out: Percent Inhibition; for inhibition at 560 g/ha: 0.56 Kg/Ha; for inhibition at 1120 g/ha: 1.12 Kg/Ha; for inhibition at 2240 g/ha: 2.24 Kg/Ha; for inhibition at 4480 g/ha: 4.48 Kg/Ha
Protocol: as §1

[4] = Toxicology studies, skin irritation; details: in vivo
Excerpt: Toxicology studies on the compound of Example 1 have indicated the compound to be quite safe. […] No special handling procedures beyond normal precautions are deemed necessary.

[5] = tested on: cotton; test: Field pre-emergence selectivity test; type: in vivo; details: Gossypium hirsutum, 1008 h, 6 weeks, read-out: Percent Inhibition; for inhibition at 560 g/ha: 0.56 Kg/Ha; for inhibition at 1120 g/ha: 1.12 Kg/Ha; for inhibition at 2240 g/ha: 2.24 Kg/Ha; for inhibition at 4480 g/ha: 4.48 Kg/Ha
Excerpt: (§2) The seeds were planted in a fine seedbed of silt loam of intermediate moisture. The seeds were planted at a depth of two inches (5.08 cm). First rainfall (0.2"; 0.51 cm) occurred the day following treatment, the second rain (0.25"; […]) two days after treatment; cumulative rainfall 22 days after treatment was 1.8" (4.57 cm). Observations were made 6 weeks after treatment.

[6] = tested on: peanuts; test: Field pre-emergence selectivity test; type: in vivo; details: 1008 h, 6 weeks, read-out: Percent Inhibition; for inhibition at 560 g/ha: 0.56 Kg/Ha; for inhibition at 1120 g/ha: 1.12 Kg/Ha; for inhibition at 2240 g/ha: 2.24 Kg/Ha; for inhibition at 4480 g/ha: 4.48 Kg/Ha
Excerpt: as §2

[7] = tested on: Lambsquarters; test: Field pre-emergence selectivity test; type: in vivo; details: Chenopodium album, 1008 h, 6 weeks, read-out: Percent Inhibition; for inhibition at 560 g/ha: 0.56 Kg/Ha; for inhibition at 1120 g/ha: 1.12 Kg/Ha; for inhibition at 2240 g/ha: 2.24 Kg/Ha; for inhibition at 4480 g/ha: 4.48 Kg/Ha
Excerpt: as §2

[8] = tested on: Sweet Corn; test: Field pre-emergence selectivity test; type: in vivo; details: Zea mays, 1008 h, 6 weeks, read-out: Percent Inhibition; for inhibition at 560 g/ha: 0.56 Kg/Ha; for inhibition at 1120 g/ha: 1.12 Kg/Ha; for inhibition at 2240 g/ha: 2.24 Kg/Ha; for inhibition at 4480 g/ha: 4.48 Kg/Ha
Excerpt: as §2

[9] = tested on: soybeans; test: Greenhouse pre-emergence GR15/GR85 selectivity test; type: in vivo; details: for GR15 Rate: Table XIV
Method in brief: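 Active ingredient mixed into cover soil over seeded pans (pre-emergence soil incorporation), initial overhead irrigation equal to 0.64 cm rainfall, then subirrigation. Scored about 2-3 weeks after seeding; GR15 (crop) and GR85 (weed) rates in kg/ha, selectivity factor = crop GR15 / weed GR85.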

CCOCN(C(=O)CCl)c1c(C)cccc1C(F)(F)F [Example 1, N-(ethoxymethyl)-2'-trifluoromethyl-6'-methyl-2-chloroacetanilide]
inhibition at 560 g/ha ([1]; P.P.I.): 32% | inhibition at 1120 g/ha ([1]; P.P.I.): 53% | inhibition at 2240 g/ha ([1]; P.P.I.): 92% | inhibition at 4480 g/ha ([1]; P.P.I.): 98% | inhibition at 560 g/ha ([1]; S.A.): 0% | inhibition at 1120 g/ha ([1]; S.A.): 3% | inhibition at 2240 g/ha ([1]; S.A.): 17% | inhibition at 4480 g/ha ([1]; S.A.): 77% | inhibition at 560 g/ha ([2]; P.P.I.): 20% | inhibition at 2240 g/ha ([2]; P.P.I.): 75% | inhibition at 4480 g/ha ([2]; P.P.I.): 85% | inhibition at 560 g/ha ([2]; S.A.): 0% | inhibition at 1120 g/ha ([2]; S.A.): 0% | inhibition at 2240 g/ha ([2]; S.A.): 50% | inhibition at 4480 g/ha ([2]; S.A.): 90% | inhibition at 560 g/ha ([3]; P.P.I.): 5% | inhibition at 1120 g/ha ([3]; P.P.I.): 7% | inhibition at 2240 g/ha ([3]; P.P.I.): 20% | inhibition at 4480 g/ha ([3]; P.P.I.): 40% | inhibition at 560 g/ha ([3]; S.A.): 0% | inhibition at 1120 g/ha ([3]; S.A.): 5% | inhibition at 2240 g/ha ([3]; S.A.): 0% | inhibition at 4480 g/ha ([3]; S.A.): 13% | skin irritation [4]: no skin irritation | inhibition at 560 g/ha ([5]; P.P.I.): 13% | inhibition at 1120 g/ha ([5]; P.P.I.): 32% | inhibition at 2240 g/ha ([5]; P.P.I.): 37% | inhibition at 4480 g/ha ([5]; P.P.I.): 82% | inhibition at 560 g/ha ([5]; S.A.): 0% | inhibition at 1120 g/ha ([5]; S.A.): 13% | inhibition at 2240 g/ha ([5]; S.A.): 20% | inhibition at 4480 g/ha ([5]; S.A.): 25% | inhibition at 560 g/ha ([6]; P.P.I.): 17% | inhibition at 1120 g/ha ([6]; P.P.I.): 13% | inhibition at 2240 g/ha ([6]; P.P.I.): 15% | inhibition at 4480 g/ha ([6]; P.P.I.): 28% | inhibition at 560 g/ha ([6]; S.A.): 0% | inhibition at 1120 g/ha ([6]; S.A.): 0% | inhibition at 2240 g/ha ([6]; S.A.): 8% | inhibition at 4480 g/ha ([6]; S.A.): 22% | inhibition at 560 g/ha ([7]; S.A.): 0% | inhibition at 1120 g/ha ([7]; S.A.): 13% | inhibition at 2240 g/ha ([7]; S.A.): 40% | inhibition at 4480 g/ha ([7]; S.A.): 67% | inhibition at 560 g/ha ([8]; P.P.I.): 0% | inhibition at 1120 g/ha ([8]; P.P.I.): 3% | inhibition at 2240 g/ha ([8]; P.P.I.): 27% | inhibition at 4480 g/ha ([8]; P.P.I.): 40% | inhibition at 560 g/ha ([8]; S.A.): 0% | inhibition at 1120 g/ha ([8]; S.A.): 0% | inhibition at 2240 g/ha ([8]; S.A.): 7% | GR15 Rate [9]: > 1.1 Kg/Ha | GR15 ([9]; soybeans/purple nutsedge): 1.1 kg/ha

CC(C)OCN(C(=O)CCl)c1ccccc1C(F)(F)F [Example 2, N--(isopropoxymethyl)-2'-trifluoromethyl-2-chloroacetanilide]
inhibition at 560 g/ha ([1]; P.P.I.): 7% | inhibition at 1120 g/ha ([1]; P.P.I.): 27% | inhibition at 2240 g/ha ([1]; P.P.I.): 38% | inhibition at 4480 g/ha ([1]; P.P.I.): 90% | inhibition at 560 g/ha ([1]; S.A.): 0% | inhibition at 1120 g/ha ([1]; S.A.): 0% | inhibition at 2240 g/ha ([1]; S.A.): 5% | inhibition at 4480 g/ha ([1]; S.A.): 33% | inhibition at 1120 g/ha ([2]; P.P.I.): 75% | inhibition at 2240 g/ha ([2]; P.P.I.): 95% | inhibition at 560 g/ha ([2]; S.A.): 0% | inhibition at 1120 g/ha ([2]; S.A.): 10% | inhibition at 2240 g/ha ([2]; S.A.): 20% | inhibition at 4480 g/ha ([2]; S.A.): 63% | inhibition at 560 g/ha ([3]; P.P.I.): 3% | inhibition at 1120 g/ha ([3]; P.P.I.): 0% | inhibition at 2240 g/ha ([3]; P.P.I.): 13% | inhibition at 4480 g/ha ([3]; P.P.I.): 28% | inhibition at 560 g/ha ([3]; S.A.): 0% | inhibition at 1120 g/ha ([3]; S.A.): 0% | inhibition at 2240 g/ha ([3]; S.A.): 3% | inhibition at 4480 g/ha ([3]; S.A.): 10% | inhibition at 560 g/ha ([5]; P.P.I.): 10% | inhibition at 1120 g/ha ([5]; P.P.I.): 23% | inhibition at 2240 g/ha ([5]; P.P.I.): 30% | inhibition at 4480 g/ha ([5]; P.P.I.): 75% | inhibition at 560 g/ha ([5]; S.A.): 0% | inhibition at 1120 g/ha ([5]; S.A.): 8% | inhibition at 2240 g/ha ([5]; S.A.): 8% | inhibition at 4480 g/ha ([5]; S.A.): 43% | inhibition at 560 g/ha ([6]; P.P.I.): 0% | inhibition at 1120 g/ha ([6]; P.P.I.): 5% | inhibition at 2240 g/ha ([6]; P.P.I.): 17% | inhibition at 4480 g/ha ([6]; P.P.I.): 45% | inhibition at 560 g/ha ([6]; S.A.): 0% | inhibition at 1120 g/ha ([6]; S.A.): 0% | inhibition at 2240 g/ha ([6]; S.A.): 5% | inhibition at 4480 g/ha ([6]; S.A.): 20% | inhibition at 2240 g/ha ([7]; P.P.I.): 95% | inhibition at 4480 g/ha ([7]; P.P.I.): 100% | inhibition at 560 g/ha ([7]; S.A.): 0% | inhibition at 1120 g/ha ([7]; S.A.): 7% | inhibition at 2240 g/ha ([7]; S.A.): 20% | inhibition at 4480 g/ha ([7]; S.A.): 62% | inhibition at 560 g/ha ([8]; P.P.I.): 0% | inhibition at 1120 g/ha ([8]; P.P.I.): 0% | inhibition at 2240 g/ha ([8]; P.P.I.): 13% | inhibition at 4480 g/ha ([8]; P.P.I.): 35% | inhibition at 560 g/ha ([8]; S.A.): 0% | inhibition at 1120 g/ha ([8]; S.A.): 0% | inhibition at 2240 g/ha ([8]; S.A.): 0% | inhibition at 4480 g/ha ([8]; S.A.): 23% | GR15 Rate [9]: > 1.1 Kg/Ha
